{"source": "patent US20240226117A1", "about": "“TREATMENT OF CONGENITAL ADRENAL HYPOPLASIA” (ReveraGen BioPharma, Inc., priority 2021, published 2024)", "key": {"glucocorticoid receptor": {"target": "T1, glucocorticoid receptor (Homo sapiens, UniProt P04150)", "T1 sequence (P04150 1-777)": "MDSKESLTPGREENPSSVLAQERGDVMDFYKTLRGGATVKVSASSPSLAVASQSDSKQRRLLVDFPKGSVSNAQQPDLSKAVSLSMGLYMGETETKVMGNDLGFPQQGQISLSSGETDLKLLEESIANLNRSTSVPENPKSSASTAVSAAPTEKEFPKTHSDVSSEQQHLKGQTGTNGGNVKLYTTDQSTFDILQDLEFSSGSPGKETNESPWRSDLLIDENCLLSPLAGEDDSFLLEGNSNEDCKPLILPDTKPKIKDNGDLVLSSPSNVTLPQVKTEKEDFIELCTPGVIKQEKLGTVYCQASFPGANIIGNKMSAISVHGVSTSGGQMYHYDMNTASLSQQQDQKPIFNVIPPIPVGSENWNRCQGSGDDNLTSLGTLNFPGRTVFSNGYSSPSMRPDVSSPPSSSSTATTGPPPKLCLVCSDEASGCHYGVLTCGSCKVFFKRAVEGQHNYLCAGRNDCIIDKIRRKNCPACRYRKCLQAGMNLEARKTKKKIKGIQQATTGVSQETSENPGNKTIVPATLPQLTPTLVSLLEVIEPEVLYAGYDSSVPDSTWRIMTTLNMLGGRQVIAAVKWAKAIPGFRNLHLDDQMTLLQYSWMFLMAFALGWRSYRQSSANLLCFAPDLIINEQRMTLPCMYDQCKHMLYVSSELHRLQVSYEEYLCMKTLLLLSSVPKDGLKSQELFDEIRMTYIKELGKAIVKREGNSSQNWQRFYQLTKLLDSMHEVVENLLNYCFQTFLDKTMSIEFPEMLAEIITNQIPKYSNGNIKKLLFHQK", "conditions": "background statement; cited from earlier work"}, "DMD participants": {"tested_on": "DMD participants", "test": "Physician-reported adverse events in vamorolone trials and published corticosteroid studies", "format": "in vivo, human", "procedure": "Study visits took place quarterly, including assessment of clinical laboratory results, vital signs, and AEs. All AEs were coded using the Medical Dictionary for Regulatory Activities (MedDRA version 19.0) system for reporting (preferred term and system organ class). Clinical efficacy assessments were performed at baseline of the VBP15-002 study, at six months (end of VBP15-003 study), and the 12-month midpoint visit of the VBP15-LTE study.\nTreatment-emergent AEs (TEAEs) have been published for the 2-week treatment MAD study (VBP15-002) and the 24-week dose-finding extension study (VBP15-003). TEAEs were reported with similar incidence by participants in all four vamorolone groups.\nA Data and Safety Monitoring Board report on the VBP15-LTE study covering all participants enrolled in the VBP15-LTE study (inclusive beyond the 12-month midpoint assessment) included three serious AEs (2 myoglobinuria events [in the same participant] and one pneumonia), all deemed unrelated to study drug. For all reported TEAEs, 402 were deemed unrelated to vamorolone, 37 were deemed remotely related, 29 were deemed possibly related, 11 were deemed probably related, and three were deemed definitely related. Of the 14 AEs probably and definitely related to vamorolone, 10 were weight gain, 2 were increased appetite, 1 was Cushingoid features, and 1 was irritability.\nThe incidences of physician-reported AEs typically for corticosteroid treatment were determined for participants that had been treated with vamorolone 6.0 mg/kg/day (for any duration), taken from the March 2019 Data Safety Update Report (DSUR) (pharmacovigilance report). Incidence rates of Cushingoid features, weight gain, hirsutism, and behavior change were studied (Table 8)."}, "ambulant boys with DMD [1]": {"tested_on": "ambulant boys with DMD", "conditions": "in vivo"}, "ambulant boys with DMD [2]": {"tested_on": "ambulant boys with DMD", "test": "VBP15-004 growth (height Z score)", "format": "in vivo, human"}, "[3]": {"target": "T2, mineralocorticoid receptor (Homo sapiens, UniProt P08235)", "T2 sequence (P08235 1-984)": "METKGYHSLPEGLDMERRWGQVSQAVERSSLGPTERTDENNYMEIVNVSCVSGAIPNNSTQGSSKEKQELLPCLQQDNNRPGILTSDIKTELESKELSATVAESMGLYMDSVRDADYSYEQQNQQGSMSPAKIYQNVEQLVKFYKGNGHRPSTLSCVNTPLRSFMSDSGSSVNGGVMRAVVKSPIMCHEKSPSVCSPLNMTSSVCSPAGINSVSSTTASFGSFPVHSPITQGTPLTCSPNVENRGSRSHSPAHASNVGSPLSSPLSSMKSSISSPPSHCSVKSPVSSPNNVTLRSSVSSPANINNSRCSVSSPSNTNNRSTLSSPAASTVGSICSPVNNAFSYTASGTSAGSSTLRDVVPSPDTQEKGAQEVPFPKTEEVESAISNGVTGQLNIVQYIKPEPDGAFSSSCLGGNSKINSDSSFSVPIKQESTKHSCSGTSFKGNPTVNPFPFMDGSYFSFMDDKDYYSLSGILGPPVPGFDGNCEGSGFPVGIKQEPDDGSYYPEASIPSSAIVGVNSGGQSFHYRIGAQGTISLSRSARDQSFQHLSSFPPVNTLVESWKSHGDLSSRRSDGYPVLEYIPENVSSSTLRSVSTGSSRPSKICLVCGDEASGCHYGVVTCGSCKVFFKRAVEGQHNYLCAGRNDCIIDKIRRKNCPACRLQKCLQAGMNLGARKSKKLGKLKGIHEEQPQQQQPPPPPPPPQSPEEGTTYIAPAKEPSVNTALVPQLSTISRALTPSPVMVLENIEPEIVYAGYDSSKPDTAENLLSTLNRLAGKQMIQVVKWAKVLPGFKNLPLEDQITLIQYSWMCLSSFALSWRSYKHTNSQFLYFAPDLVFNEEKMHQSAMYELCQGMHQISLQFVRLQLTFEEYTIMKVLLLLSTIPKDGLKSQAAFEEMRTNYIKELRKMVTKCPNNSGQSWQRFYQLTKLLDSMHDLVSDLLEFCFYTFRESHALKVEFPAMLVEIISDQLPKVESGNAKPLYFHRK", "conditions": "background statement; cited from earlier work"}, "[4]": {"conditions": "6.0 mg/kg/day vamorolone (any duration), n = 38, DSUR 13 Mar. 2019"}}}
{"smiles": "C[C@@H]1C[C@H]2[C@@H]3CCC4=CC(=O)C=C[C@]4(C)C3=CC[C@]2(C)[C@@]1(O)C(=O)CO", "note": "[Vamorolone, 17α,21-dihydroxy-16α-methylpregna-1,4,9(11)-triene-3,20-dione]", "values": [{"measurement": "binding to the glucocorticoid receptor", "setting": "glucocorticoid receptor", "result": "potently binds"}, {"measurement": "Incidence of physician-reported Cushingoid", "setting": "DMD participants; [4]", "result": 2.6, "unit": "%"}, {"measurement": "Incidence of physician-reported behavior change", "setting": "DMD participants; [4]", "result": 0, "unit": "%^2"}, {"measurement": "Incidence of physician-reported hypertrichosis/hirsutism", "setting": "DMD participants; [4]", "result": 0, "unit": "%"}, {"measurement": "Incidence of physician-reported weight gain", "setting": "DMD participants; [4]", "result": 13.2, "unit": "%"}, {"measurement": "Cushingoid features among the 14 AEs probably and definitely related", "setting": "DMD participants; VBP15-LTE", "result": 1}, {"measurement": "increased appetite among the 14 AEs probably and definitely related", "setting": "DMD participants; VBP15-LTE", "result": 2}, {"measurement": "irritability among the 14 AEs probably and definitely related", "setting": "DMD participants; VBP15-LTE", "result": 1}, {"measurement": "weight gain among the 14 AEs probably and definitely related", "setting": "DMD participants; VBP15-LTE", "result": 10}, {"measurement": "TEAEs deemed definitely related", "setting": "DMD participants; VBP15-LTE, all reported TEAEs", "result": "three"}, {"measurement": "TEAEs deemed possibly related", "setting": "DMD participants; VBP15-LTE, all reported TEAEs", "result": 29}, {"measurement": "TEAEs deemed probably related", "setting": "DMD participants; VBP15-LTE, all reported TEAEs", "result": 11}, {"measurement": "TEAEs deemed remotely related", "setting": "DMD participants; VBP15-LTE, all reported TEAEs", "result": 37}, {"measurement": "TEAEs deemed unrelated to vamorolone", "setting": "DMD participants; VBP15-LTE, all reported TEAEs", "result": 402}, {"measurement": "serious AEs in VBP15-LTE (Data and Safety Monitoring Board report)", "setting": "DMD participants; all LTE participants, all deemed unrelated to study drug", "result": "three"}, {"measurement": "safety and tolerability over the 24-week treatment period (VBP15-003)", "setting": "DMD participants; oral, all doses tested (0.25, 0.75, 2.0, 6.0 mg/kg/day)", "result": "safe and well-tolerated"}, {"measurement": "clinically relevant psychiatric events, subjects", "setting": "ambulant boys with DMD [1]", "result": "no vamorolone-treated subjects"}, {"measurement": "moderate/severe behavior problems, subjects", "setting": "ambulant boys with DMD [1]; male, human, 24 weeks", "result": 1.7, "unit": "%"}, {"measurement": "change in height Z scores from baseline to Week 24", "setting": "ambulant boys with DMD [2]; vamorolone 2.0 mg/kg/day", "result": "overall stable height change Z scores"}, {"measurement": "change in height Z scores from baseline to Week 24", "setting": "ambulant boys with DMD [2]; vamorolone 6.0 mg/kg/day, p=0.02 versus prednisone", "result": "increased growth rate"}, {"measurement": "activity at the mineralocorticoid receptor", "setting": "[3]", "result": "potent antagonist"}]}
